The source of these data is PubChem BioAssay AID179 (DTP/NCI, 2004).

Structures are written as SMILES. Active and inactive are the calls of the source.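 The calls were made as follows: active = compounds giving half or more protection of infected cells from virus-caused growth loss, again on retest; inactive = the rest.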 Some results are limits rather than exact numbers.

This test deals with CEM cells HIV-1 protection, formazan growth assay. In words: NCI AIDS Antiviral Assay. The settings on record: for IC50: measured here: growth of uninfected CEM cells. The essentials: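 Protection of CEM cells against HIV-1 measured as cell growth via soluble formazan read-out, with five concentrations tested on both infected and uninfected cells; failure to protect may reflect toxicity.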

For orientation: EC50 means the concentration that produces a half-maximal response. As a reminder, the IC50 is the concentration at which inhibition is half-maximal. On to `CC(=O)Oc1ccc2c(c1)[nH]c1c3ccc(OC(C)=O)cc3oc(=O)c21`, for which the EC50 was over 200 µM and the IC50 worked out at 11.7 µM. Turning to `O=[N+]([O-])c1ccc(Cl)cc1C1SCc2nc3ccccc3n21` (configuration not stated), the outcome was inactive.

`NC(=O)N/N=C(\CC1OC(=O)c2ccccc21)c1ccc([N+](=O)[O-])cc1` (configuration not stated): the outcome was inactive. In the case of `Nc1ncnc2nc(CO)[nH]c12`, the EC50 is over 158 µM and the IC50 was over 158 µM. With `CCOC(=O)C1SC(=Nc2cccc(Cl)c2C)N=C1C` (configuration not stated), the EC50 is 6.03 µM and the IC50 came out at 60.3 µM. On to `C=CC(OCC)(OCC)OCC`, for which the EC50 is over 1450 µM and the IC50 is over 1450 µM. `Cc1nc(N)c(N2CCN(Cc3ccccc3)CC2)c(=O)[nH]1`: the EC50 was over 200 µM and the IC50 is over 200 µM. Turning to `Cc1ccc2ccc3c(=O)cc(C)[nH]c3c2n1`, the EC50 is 9.77 µM and the half-inhibitory concentration (IC50) amounted to 32.4 µM.

Turning to `N#CC(C(=O)CCC(=O)Nc1ccc(Cl)cc1)c1ccc(Cl)cc1` (configuration not stated), the result was inactive.

With `CN(/N=C/C=N/N(C)C1=NCCCCN1)C1=NCCCCN1`, the EC50 was over 200 µM and the IC50 was over 200 µM.

Regarding `O=C1c2cccc(O)c2C(=O)c2cccc(O)c21`, the EC50 was over 4.37 µM and the IC50 was over 4.37 µM. Turning to `O=C1C2C3CCC(C3)C2C(=O)C2C3CCC(C3)C12` (configuration not stated), the EC50 was over 200 µM and the half-inhibitory concentration (IC50) was 186 µM. In the same order, the values of `CC(=O)Nc1ccc(N)c2cc(S(=O)(=O)O)ccc12` are over 200 µM and over 200 µM. With `O=S(=O)(NC(c1ccccc1)(c1cc2ccccc2[nH]1)c1cc2ccccc2n1S(=O)(=O)c1ccccc1)c1ccccc1` (configuration not stated), the EC50 was over 200 µM and the IC50 was over 200 µM. In the case of `CCC1(O)N=C(c2ccccc2)c2ccccc2-n2cccc21` (configuration not stated), the EC50 was over 200 µM and the IC50 was determined as 166 µM. Take `CCOC(=O)c1cc(C2CCN(c3ccccc3)C2=O)c(C(=O)/C=C(/C)N)[nH]1` (configuration not stated): the EC50 is 57.5 µM and the IC50 was over 200 µM. For the molecule `C[C@]12CCC(=O)C=C1CC[C@@H]1[C@@H]2C(=O)C[C@@]2(C)[C@H]1CC[C@]2(O)C(=O)CO`, the EC50 was over 200 µM and the half-maximal inhibitory concentration (IC50) is over 200 µM.

On to `Cc1nn(C(=O)Cc2ccccc2)c2c1C(c1ccc(/C=C/c3ccccc3)cc1)SC(N)=N2` (configuration not stated), for which the EC50 was 148 µM and the IC50 was over 200 µM.

As to `O=C(CC/C(CC(=O)c1ccc(Br)cc1)=N\O)Nc1ccc(Cl)c(Cl)c1`, the EC50 was over 79.4 µM and the IC50 was determined as 16.2 µM. Consider `CCCCOC(=O)C(=O)C(CC(C(=O)Cc1ccccc1)c1ccccc1)C(=O)C=C(C)C` (configuration not stated), for which the EC50 was over 112 µM and the IC50 is over 112 µM.

Take `N/C(CCSCCSCC/C(N)=N\O)=N\O`: the EC50 is over 200 µM and the IC50 is over 200 µM.

As for `Nc1nc(Cl)c(N)c(NCC2(CO)CCC(OCc3ccccc3)C2)n1` (configuration not stated), the EC50 is over 200 µM and the concentration for half-maximal inhibition (IC50) is 26.9 µM. `OCC1OC(n2cnc3c(I)ncnc32)C(O)C1O` (configuration not stated): the outcome was inactive. The molecule `N=C(N)c1ccc(N=Nc2cc(N=Nc3ccc(C(=N)N)cc3)c(O)cc2O)cc1` had an EC50 of 85.1 µM and an IC50 of over 100 µM. In the case of `Cc1cccnc1NC(=S)Nc1cccc(C(F)(F)F)c1`, the EC50 is over 200 µM and the half-inhibitory concentration (IC50) came to 16.2 µM. On to `Clc1nc(Nc2nc3ccccc3[nH]2)nc(Cl)c1Cc1ccccc1`, for which the outcome was inactive. For the molecule `CCCCCCc1cc2cc(C(=O)Nc3nc(C45CC6CC(CC(C6)C4)C5)cs3)c(=O)oc2cc1O`, the EC50 is over 100 µM and the IC50 came to 8.51 µM. On to `CC(=O)OC1CCC2(C)C(CCC3C4CC=C(C(C)=O)C4(C)OC(=O)CC32)C1` (configuration not stated), for which the result was inactive. For `CC(=O)OC1CC2(C)OC(Cc3ccccc32)O1` (configuration not stated), the EC50 is over 200 µM and the 50% inhibitory concentration (IC50) was over 200 µM.

Turning to `Cc1cccc(-n2cc(C#N)c3c(C)cc(C)nc32)c1`, the EC50 is over 100 µM and the IC50 was over 100 µM.

`O=C(OOC(=O)c1ccccc1)c1ccccc1`: the EC50 was over 200 µM and the IC50 is over 200 µM.

As to `COc1cc2c(cc1OC)C1(c3ccccc3)ON=C(c3ccccc3)N1CS2` (configuration not stated), the EC50 was over 9.33 µM and the IC50 was over 9.33 µM. In the case of `CC(C)(C)c1cc(-c2ccc(-c3cc(C(C)(C)C)c(O)c(C(C)(C)C)c3)cc2)cc(C(C)(C)C)c1O`, the EC50 was over 100 µM and the half-maximal inhibitory concentration (IC50) is over 100 µM.

For `CN1CCC2(CC1)C(=NC1CCCCC1)NC(=O)N2c1ccccc1`, the EC50 is over 200 µM and the IC50 is over 200 µM. With `CC(C)(C)C1=CC(O)(c2c3ccccc3c(C3(O)C=C(C(C)(C)C)C(=O)C(C(C)(C)C)=C3)c3ccccc23)C=C(C(C)(C)C)C1=O`, the EC50 was over 100 µM and the IC50 is over 100 µM.

As for `COc1ccn(CC(C)=O)c(=O)n1`, the EC50 is over 200 µM and the half-maximal inhibitory concentration (IC50) was over 200 µM. For the molecule `COC(=O)c1cc(=O)nc2n1C1OC(CO)C(O)C1O2` (configuration not stated), the EC50 was over 200 µM and the half-inhibitory concentration (IC50) is over 200 µM.

For the molecule `CCCCCCCC(=O)OCC1OC(n2cc(F)c(=O)[nH]c2=O)C(N)C(O)C1O` (configuration not stated), the EC50 was over 309 µM and the IC50 was over 309 µM. Consider `COc1cc2c(c([N+](=O)[O-])c1)NC(=O)CS2`, for which the EC50 is over 200 µM and the IC50 amounted to 79.4 µM.

In the case of `CCCCCCCCCCCCCCCC(=O)Nc1ccn(C2CCC(COP(=O)(O)OCC3OC(n4ccc(NC(=O)CCCCCCCCCCCCCCC)nc4=O)CC3OP(=O)(O)OCC3OC(n4cc(C)c(=O)[nH]c4=O)CC3N=[N+]=[N-])O2)c(=O)n1` (configuration not stated), the EC50 was 0.0282 µM and the IC50 is 15.1 µM. Take `C/C(=N/NC(=S)N1CCCCC1)c1cccc(/C(C)=N\NC(=S)N2CCCCC2)n1`: the EC50 is over 200 µM and the IC50 was found to be 13.2 µM.

Turning to `O=C(NCCc1c(-c2ccccc2)[nH]c2ccccc12)C1CCCCC1`, the EC50 is over 200 µM and the IC50 worked out at 15.8 µM. With `COc1c2c(cc3c1OCO3)[C@]13C=C[C@H](OC)C[C@H]1N(C2)CC3O` (some centres not stated), the EC50 was over 126 µM and the IC50 is over 126 µM. Regarding `CCOC(=O)COc1ccc(OCC(=O)OCC)c2c1C(=O)CCCC2=O`, the result was inactive. With `COCn1c(=O)n(C)c(=O)c2c1nc1c(c(=O)n(C)c(=O)n1COC)[n+]2[O-]`, the EC50 is over 200 µM and the IC50 stood at 5.25 µM.

Consider `c1ccc(CSP234N5CCN2CCN3CCN4CC5)c(CSP234N5CCN2CCN3CCN4CC5)c1`, for which the EC50 is over 100 µM and the IC50 came out at 39.8 µM. Turning to `CCOC(=O)C(/C=N/C(=S)Nc1c(C)cccc1C)=C(/O)c1ccccc1`, the EC50 is over 200 µM and the IC50 is over 200 µM. On to `CC(=O)c1cccc(NC(=O)/C(=N\NC(C)(C)C)c2c(O)c3ccccc3oc2=O)c1`, for which the EC50 was over 589 µM and the IC50 was 257 µM. `COc1ccc(C(O)/C(=C/n2ccnc2)c2ccccc2)cc1OC` (configuration not stated): the EC50 was over 537 µM and the IC50 was over 537 µM. As to `CSc1sc(C)cc1-c1nsc(=O)o1`, the EC50 was over 200 µM and the IC50 is over 200 µM. Turning to `CC1(N)COP(=O)(NCc2ccccc2)OC1` (configuration not stated), the EC50 is over 676 µM and the IC50 turned out to be 589 µM. As for `Cc1c2ccccc2c(C)c2c3c(ccc12)C(=O)C=CC3=O`, the outcome was inactive.

Turning to `C=C(C(=C)P(=S)(C(C)C)C(C)C)P(=S)(C(C)C)C(C)C`, the EC50 is over 74.1 µM and the half-maximal inhibitory concentration (IC50) is over 74.1 µM. On to `O=C1OC(c2cccc3ccccc23)c2ccccc21` (configuration not stated), for which the EC50 was over 501 µM and the IC50 was found to be 26.3 µM.

For `O=c1c2ccccc2c(=O)n2n1C1CCC2C1`, the EC50 was over 1100 µM and the IC50 is over 1100 µM. Take `Cc1cc2c(C(C)C)c(O)c(O)c(C=Nc3ccccc3)c2c(O)c1-c1c(C)cc2c(C(C)C)c(O)c(O)c(C=Nc3ccccc3)c2c1O`: the EC50 was 0.55 µM and the concentration for half-maximal inhibition (IC50) was 0.562 µM. With `c1ccc2c(c1)CCCc1cc3ccccc3nc1-2`, the EC50 was over 55 µM and the IC50 was over 55 µM. `C=CCOP1(OCC=C)=NP(OCC=C)(OCC=C)=NP(OCC=C)(OCC=C)=N1`: the EC50 was over 200 µM and the IC50 came out at 8.51 µM. In the case of `OCC1(C(F)(F)F)OC(n2cncn2)CC1O` (configuration not stated), the EC50 is over 200 µM and the IC50 is over 200 µM.

As to `COc1ccc(C/C=C(\C)CCO)cc1`, the EC50 was over 200 µM and the IC50 amounted to 126 µM.

For `CCOC(=O)/C(=C\c1cccs1)P(=O)(OCC)OCC`, the EC50 is over 794 µM and the IC50 came out at 41.7 µM. `CC(=O)Nc1ccc(C2C(C(=O)Nc3ccccc3)=C(C)NC(C)=C2C(=O)Nc2ccccc2)cc1`: the EC50 was over 74.1 µM and the IC50 is over 74.1 µM. `O=c1[nH]c2ncccc2c(=O)n1O`: the EC50 was over 200 µM and the IC50 amounted to 34.7 µM.

`O=C1/C(=C/c2ccc3c(c2)OCO3)SC2C=Nc3ccccc3N12` (configuration not stated): the EC50 is over 2.24 µM and the IC50 was over 2.24 µM. Regarding `CCCCCCCCCCCC[N+](CCCCCCCCCCCC)=C1SCCS1`, the outcome was inactive.

With `CN(C)CCCNC(=O)c1nc(NC(=O)c2nc(NC(=O)c3nc(NC(=O)c4ccc(C(=O)Nc5cn(C)c(C(=O)Nc6cn(C)c(C(=O)Nc7cn(C)c(C(=O)NCCCN(C)C)n7)n6)n5)nc4)cn3C)cn2C)cn1C`, the EC50 was over 50.1 µM and the IC50 is over 50.1 µM. As for `CCCOc1cnc([C@H]2CCC3[C@@H]4CC=C5C[C@@H](OC(=O)CCC(=O)O)CC[C@]5(C)C4CC[C@@]32C)s1` (some centres not stated), the EC50 is over 47.9 µM and the concentration for half-maximal inhibition (IC50) is 19.1 µM.

For `N#Cc1nc(-c2ccccc2C(=O)O)oc1N`, the result was inactive. Take `Cc1ccc(C)c(C2=C/C(=C/c3ccc(N(CCC#N)CCC#N)cc3)C(=O)O2)c1`: the EC50 is over 9.55 µM and the IC50 was over 9.55 µM. Turning to `COc1cc(/C=C2/SC(c3ccccc3)N(c3cccc(NC(C)=O)c3)C2=O)cc(OC)c1OC` (configuration not stated), the EC50 was over 200 µM and the IC50 was 53.7 µM. `CCCCN(CCCC)CC(C(=O)Nc1ccc([N+](=O)[O-])cc1[N+](=O)[O-])/C(C)=N\NC(=S)NN` (configuration not stated): the EC50 is over 52.5 µM and the 50% inhibitory concentration (IC50) is over 52.5 µM.
